Assay results published in patent publication US20260083851A1 (AVILAR THERAPEUTICS, INC., priority 2022, published 2026).
Positions of bridges follow the written chain, without caps; N, C: chain ends. Non-standard residues stand in square brackets, D forms with d. Residues, ends and D or L forms follow the SMILES beside them. ξ: configuration not given here. Pro(4S-NH2) = N[C@@H]1CN[C@H](C(=O)O)C1; ξPro(4-NH2) = NC1CNC(C(=O)O)C1

Target: T1, ASGP receptor (biotinylated ASGPR) (Homo sapiens, UniProt P07306)
T1 construct: biotin (biotinylated)
T1 sequence (P07306 1-291): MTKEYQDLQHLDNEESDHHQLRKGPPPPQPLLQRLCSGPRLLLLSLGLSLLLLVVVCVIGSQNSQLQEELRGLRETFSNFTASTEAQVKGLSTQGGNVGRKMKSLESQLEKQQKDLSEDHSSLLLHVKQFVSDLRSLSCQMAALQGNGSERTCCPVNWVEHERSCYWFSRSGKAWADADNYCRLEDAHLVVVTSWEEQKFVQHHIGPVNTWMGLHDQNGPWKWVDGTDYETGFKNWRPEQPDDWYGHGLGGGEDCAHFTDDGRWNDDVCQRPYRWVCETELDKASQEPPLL
Experiment: not given
Type: binding
Conditions: SPR, Biacore 8K, 25° C.; Table 1A; read-out: ASGPR KD

SMILES	Kd [µM]
O=C(O)COCCOCC(=O)NC[C@H]1OC[C@H](Nc2cccc(C(F)(F)F)n2)[C@@H](O)[C@H]1O [A103, 2-(2-(2-((((2R,3R,4R,5S)-3,4-dihydroxy-5-((6-(trifluoromethyl)pyridin-2-yl)amino)tetrahydro-2H-pyran-2-yl)methyl)amino)-2-oxoethoxy)ethoxy)acetic acid]	< 10
O=C(NC[C@H]1OC[C@H](Nc2cncc(C(F)(F)F)n2)[C@@H](O)[C@H]1O)c1ncccn1 [A4, N-(((2R,3R,4R,5S)-3,4-dihydroxy-5-((6-(trifluoromethyl)pyrazin-2-yl)amino)tetrahydro-2H-pyran-2-yl)methyl)pyrimidine-2-carboxamide]	< 10
NCCOCCOCCOC[C@H]1OC[C@H](Nc2cncc(C(F)(F)F)n2)[C@@H](O)[C@H]1O [A53, (2R,3R,4R,5S)-2-((2-(2-(2-aminoethoxy)ethoxy)ethoxy)methyl)-5-((6-(trifluoromethyl)pyrazin-2-yl)amino)tetrahydro-2H-pyran-3,4-diol]	< 10
O=C(NC[C@H]1OC[C@H](Nc2cncc(C(F)(F)F)n2)[C@@H](O)[C@H]1O)C12CC3CC(CC(C3)C1)C2 [A15, (1S,3S)—N-(((2R,3R,4R,5S)-3,4-dihydroxy-5-((6-(trifluoromethyl)pyrazin-2-yl)amino)tetrahydro-2H-pyran-2-yl)methyl)adamantane-1-carboxamide]	< 10
COCCO[C@H]1O[C@H](CO)[C@H](O)[C@H](O)[C@H]1Nc1cncc(C(F)(F)F)n1 [A5]	< 10
O=C(NC[C@H]1OC[C@H](Nc2cncc(C(F)(F)F)n2)[C@@H](O)[C@H]1O)c1ncc2c(n1)CCNC2 [A86, N-(((2R,3R,4R,5S)-3,4-dihydroxy-5-((6-(trifluoromethyl)pyrazin-2-yl)amino)tetrahydro-2H-pyran-2-yl)methyl)-5,6,7,8-tetrahydropyrido[4,3-d]pyrimidine-2-carboxamide]	< 10
O=C(NC[C@H]1OC[C@H](Nc2cncc(C(F)(F)F)n2)[C@@H](O)[C@H]1O)c1cnccn1 [A20, N-(((2R,3R,4R,5S)-3,4-dihydroxy-5-((6-(trifluoromethyl)pyrazin-2-yl)amino)tetrahydro-2H-pyran-2-yl)methyl)pyrazine-2-carboxamide]	< 10

Same assay, conditions: SPR, Biacore 8K, 25° C.; Table 1B, numeric bound; read-out: ASGPR Kd

SMILES	Kd [µM]
OC[C@H]1OC[C@H](NC2CCCC(C(F)(F)F)C2)[C@@H](O)[C@H]1O (stereo partly drawn) [A158, (2R,3R,4R,5S)-2-(hydroxymethyl)-5-((3-(trifluoromethyl)cyclohexyl)amino) tetrahydro-2H-pyran-3,4-diol]	> 30

Same assay, conditions: SPR, Biacore 8K, 25° C.; Table 1B; read-out: ASGPR Kd

SMILES	Kd [µM]
O=C1CCCN1C[C@H]1OC[C@H](Nc2cncc(C(F)(F)F)n2)[C@@H](O)[C@H]1O [A157, 1-(((2R,3R,4R,5S)-3,4-dihydroxy-5-((6-(trifluoromethyl)pyrazin-2-yl)amino)tetrahydro-2H-pyran-2-yl)methyl)pyrrolidin-2-one]	< 10

Same assay, conditions: SPR, Biacore 8K, 25° C.; Table 1C; read-out: ASGPR KD

SMILES	Kd [µM]
O[C@@H]1[C@H](O)[C@@H](Oc2cccc(C(F)(F)F)n2)CO[C@@H]1CN1CCN(c2ncccn2)CC1 [A270]	< 10
O[C@@H]1[C@H](O)[C@@H](Nc2cncc(C(F)(F)F)n2)CO[C@@H]1Cc1nnc(-c2ccccc2)o1 [A209, (2R,3R,4R,5S)-2-((5-phenyl-1,3,4-oxadiazol-2-yl)methyl)-5-((6-(trifluoromethyl)pyrazin-2-yl)amino)tetrahydro-2H-pyran-3,4-diol]	< 10
O=C(O)c1cnc(OC[C@H]2OC[C@H](Nc3cncc(C(F)(F)F)n3)[C@@H](O)[C@H]2O)nc1 [A194, 2-(((2R,3R,4R,5S)-3,4-dihydroxy-5-((6-(trifluoromethyl)pyrazin-2-yl)amino)tetrahydro-2H-pyran-2-yl)methoxy)pyrimidine-5-carboxylic acid]	< 10
CC(C)(C)OC(=O)N1CCC(Cc2ccc(OC[C@H]3OC[C@H](Oc4cccc(C(F)(F)F)n4)[C@@H](O)[C@H]3O)nn2)C1 (some centres unmarked) [A294]	< 10
[O-][n+]1c(O[C@H]2CO[C@H](CSc3ccccc3)[C@H](O)[C@@H]2O)cccc1C(F)(F)F [A312]	< 10
O[C@@H]1[C@H](O)[C@@H](Nc2cncc(C(F)(F)F)n2)CO[C@@H]1CN1CCc2ccccc2C1 [A232, (2R,3R,4R,5S)-2-((3,4-dihydroisoquinolin-2(1H)-yl)methyl)-5-((6-(trifluoromethyl)pyrazin-2-yl)amino)tetrahydro-2H-pyran-3,4-diol]	< 10
O=C(O)CN1CCC(N2CCN(C[C@H]3OC[C@H](Nc4cncc(C(F)(F)F)n4)[C@@H](O)[C@H]3O)CC2)CC1 [A206, 2-(4-(4-(((2R,3R,4R,5S)-3,4-dihydroxy-5-((6-(trifluoromethyl)pyrazin-2-yl)amino)tetrahydro-2H-pyran-2-yl)methyl)piperazin-1-yl)piperidin-1-yl)acetic acid]	< 10
O[C@@H]1[C@@H](Nc2cncc(C(F)(F)F)n2)[C@H]2OC[C@](COc3cnccn3)(O2)[C@@H]1O [A269]	< 10
O[C@@H]1[C@H](O)[C@@H](Oc2cccc(C(F)(F)F)n2)CO[C@@H]1CN1CCN(c2ccc(Br)nn2)CC1 [A257]	< 10
O[C@@H]1[C@@H](Nc2cccc(C(F)(F)F)n2)[C@H]2OC[C@](COc3cccnn3)(O2)[C@@H]1O [A295]	< 10
O[C@@H]1[C@@H](Oc2cccc(C(F)(F)F)n2)COC(C(F)(F)c2ccc(Cl)cc2)[C@@H]1O (some centres unmarked) [A306]	< 10
O=C(O)COCCOCC(=O)NC[C@@]12CO[C@@H](O1)[C@H](Nc1cncc(C(F)(F)F)n1)[C@@H](O)[C@H]2O [A305]	< 10

Next, values leading:

Kd [µM]	SMILES
< 10	CC(=O)[C@H]1O[C@H](C)[C@H](O)[C@H](O)[C@H]1Oc1cccc(C(F)(F)F)n1 [A334]
< 10	COC(=O)/C=C/[C@H]1O[C@H](C)[C@H](O)[C@H](O)[C@H]1Oc1cccc(C(F)(F)F)n1 [A333]
< 10	C[C@H]1O[C@H](c2cccc3ccccc23)[C@H](Oc2cccc(C(F)(F)F)n2)[C@@H](O)[C@H]1O [A342]

Same assay, conditions: SPR, Biacore 8K, 25° C.; Table 1D, numeric bound; read-out: ASGPR KD

SMILES	Kd [µM]
O=C(OCc1ccccc1)N1C[C@H](O)[C@H](O)[C@@H](S(=O)(=O)c2cccc(C(F)(F)F)n2)C1 [A356]	> 30

Same assay, conditions: SPR, Biacore 8K, 25° C.; Table 1D; read-out: ASGPR KD

SMILES	Kd [µM]
O=C(OCc1ccccc1)N1C[C@H](Nc2cncc(C(F)(F)F)n2)[C@@H](O)[C@@H](O)C1 [A361]	< 10
O[C@@H]1[C@H](O)[C@@H](Oc2cncc(C(F)(F)F)n2)CO[C@@H]1COc1cnccn1 [A421]	< 10
O[C@@H]1[C@H](O)[C@@H](Nc2cncc(C(F)(F)F)n2)CO[C@@H]1COc1ccc(C2CCNCC2)nn1 [A416]	< 10

Same assay, conditions: SPR, Biacore 8K, 25° C.; Table 1E; read-out: ASGPR KD

SMILES	Kd [µM]
C[C@H]1O[C@H](C(N)=O)[C@H](Oc2cccc(C(F)(F)F)n2)[C@@H](O)[C@H]1O [A431]	< 10

Target: IgG
Experiment: IgG SPR binding
Conditions: second table, read-out: IgG KD

SMILES	Kd [µM]
CC(C)CC1NC(=O)C(Cc2cnc[nH]2)NC(=O)C(Cc2c[nH]c3ccccc23)NC(=O)C(C)NC(=O)C2CSSCC(NC(=O)C(Cc3c[nH]c4ccccc34)NC(=O)C(C(C)C)NC(=O)C(CC(C)C)NC(=O)C(CCC(=O)O)NC(=O)CNC1=O)C(=O)NC(C(C)O)C(=O)N1CCCC1C(=O)N1CC(N)CC1C(=O)NC(C)C(=O)N2 (centres unmarked) [compound 54] (cyclo(GELVWCTP[ξPro(4-NH2)]ACAWHL); disulfide 6-11; configuration not given here)	< 0.1
CC(C)C[C@@H]1NC(=O)[C@H](Cc2cnc[nH]2)NC(=O)[C@H](Cc2c[nH]c3ccccc23)NC(=O)[C@H](C)NC(=O)[C@@H]2CSSC[C@H](NC(=O)[C@H](Cc3c[nH]c4ccccc34)NC(=O)[C@H](C(C)C)NC(=O)[C@H](CC(C)C)NC(=O)[C@H](CCC(=O)N(C)C)NC(=O)CNC1=O)C(=O)N[C@@H]([C@@H](C)O)C(=O)N1CCC[C@@H]1C(=O)N1C[C@@H](N)C[C@H]1C(=O)N[C@@H](C)C(=O)N2 [compound 68]	< 0.1

Next, values leading:

Kd [µM]	SMILES
< 0.1	CC(C)CC1NC(=O)C(Cc2cnc[nH]2)NC(=O)C(Cc2c[nH]c3ccccc23)NC(=O)C(C)NC(=O)C2CSSCC(NC(=O)C(Cc3c[nH]c4ccccc34)NC(=O)C(C(C)C)NC(=O)C(CC(C)C)NC(=O)C(CCC(=O)O)NC(=O)CNC1=O)C(=O)NC(C(C)O)C(=O)N1CCCC1C(=O)N1CC(N)CC1C(=O)NC(CC(=O)O)C(=O)N2 (centres unmarked) [compound 66]
< 0.1	CC(C)CC1NC(=O)C(Cc2cnc[nH]2)NC(=O)C(Cc2c[nH]c3ccccc23)NC(=O)C(C)NC(=O)C2CSSCC(NC(=O)C(Cc3c[nH]c4ccccc34)NC(=O)C(C(C)C)NC(=O)C(CC(C)C)NC(=O)C(CCC(=O)O)NC(=O)CNC1=O)C(=O)NC(C(C)O)C(=O)N1CCCC1C(=O)N1CC(N)CC1C(=O)NC(CC(N)=O)C(=O)N2 (centres unmarked) [compound 55] (cyclo(GELVWCTP[ξPro(4-NH2)]NCAWHL); disulfide 6-11; configuration not given here)
< 0.1	CC(C)C[C@@H]1NC(=O)[C@H](C)NC(=O)CNC(=O)[C@H](CC(C)C)NC(=O)[C@H](Cc2cnc[nH]2)NC(=O)[C@H](Cc2c[nH]c3ccccc23)NC(=O)[C@H](C)NC(=O)[C@@H]2CSSC[C@H](NC(=O)[C@H](Cc3c[nH]c4ccccc34)NC(=O)[C@H](C(C)C)NC1=O)C(=O)N[C@@H]([C@@H](C)O)C(=O)N1CCC[C@@H]1C(=O)N1C[C@@H](N)C[C@H]1C(=O)N[C@@H](CC(N)=O)C(=O)N2 [compound 70] (cyclo(ALVWCT[dP][Pro(4S-NH2)]NCAWHLG); disulfide 5-10)
< 0.1	CC(C)CC1NC(=O)C(Cc2cnc[nH]2)NC(=O)C(Cc2c[nH]c3ccccc23)NC(=O)C(C)NC(=O)C2CSSCC(NC(=O)C(Cc3c[nH]c4ccccc34)NC(=O)C(C(C)C)NC(=O)C(CC(C)C)NC(=O)C(CCC(=O)O)NC(=O)CNC1=O)C(=O)NC(C(C)O)C(=O)N1CCCC1C(=O)N1CC(N)CC1C(=O)NC(CC(=O)O)C(=O)N2 (centres unmarked) [compound 63]
